Laboratory results as given in patent US12384801B2, “Benzothiophene, thienopyridine and thienopyrimidine derivatives for the modulation of sting” (CTXT PTY LTD, priority 2019, dated 2025).

Columns and labels:
[1] = biological target: T1, human STING (HAQ) (Homo sapiens (Human), UniProt Q86WV6, G230A/H232R/R293Q); experiment: Differential scanning fluorimetry (DSF), huSTING (HAQ); type: binding; settings: compound 100 μM, 2 μM protein, Tm with ligand minus Tm of protein alone (1% DMSO)
Experimental: (§1) Data were analyzed using “Meltdown analysis” protocol described by Rosa (2015).

[2] = biological target: WT human STING isoform (Homo sapiens (Human), UniProt Q86WV6, H232R); experiment: THP-1-Dual KI-hSTING-R232 reporter cell line assay; type: cell-based; settings: 24 h incubation, luminescence, normalized to ML RR-S2 CDA 40 μM; read-out: EC50 THP-1 Dual KI-hSTING-R232 cells
Chain of WT human STING isoform (Q86WV6 whole entry H232R, canonical isoform): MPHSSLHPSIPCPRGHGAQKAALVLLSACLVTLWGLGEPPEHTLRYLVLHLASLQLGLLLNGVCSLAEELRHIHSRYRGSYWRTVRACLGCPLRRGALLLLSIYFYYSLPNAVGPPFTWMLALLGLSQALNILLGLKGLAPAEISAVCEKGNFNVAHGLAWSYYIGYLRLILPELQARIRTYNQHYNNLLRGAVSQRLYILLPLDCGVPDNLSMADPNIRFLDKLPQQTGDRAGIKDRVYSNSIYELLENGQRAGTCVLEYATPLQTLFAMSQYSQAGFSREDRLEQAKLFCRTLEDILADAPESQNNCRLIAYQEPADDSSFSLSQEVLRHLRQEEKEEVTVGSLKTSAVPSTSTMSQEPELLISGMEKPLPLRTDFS
Experimental: (§2) THP-1 STING Lucia ISG cells (InvivoGen #thpl-isg) were cultured in RPMI-1640 containing 2 mM L-glutamine, 25 mM HEPES, 100 μg/mL Normocin (InvivoGen) and 10% heat-inactivated FBS. Cells were seeded at a density of 7×10^5 cells/mL, maintained at 37° C./5% CO2, and passaged every 3-4 days. Selection pressure was maintained by the addition of 100 μg/mL Zeocin every second passage.
(§3) Assay conditions: cells were harvested and resuspended at a concentration of 5×10^5 cells/mL in fresh growth media. Of this cell preparation 20 μL per well was dispensed into 384 well cell culture plates (Greiner, #781098X) and incubated at 37° C./5% CO2 for 2 hours.
(§4) Concentration Response Curves (commonly 11 doses) were prepared by 2.5 fold serial dilution starting from 10 mM compound stock solution in DMSO. Compound dilutions were transferred into the cell culture plates using a pintool (0.1 μL transfer), control wells were matched for DMSO. Positive control wells received ML RR-S2 CDA (Med Chem Express HY12885B) in 5 μL of media to a final concentration of 40 μM. All other wells received additional 5 μL of media only to equalize volume. The plates were incubated for 24 h at 37° C./5% CO2.
(§5) For the detection step, QUANTI-Luc (InvivoGen #rep-qlc1) was prepared according to manufacturer's instruction and 10 μL were added per well to the culture plates. Plates were shaken for ten seconds on an orbital shaker and left in the dark at room temperature for two minutes, before luminescence was read on a Perkin Elmer Envision plate reader.
(§6) Data analysis: Luminescence raw data was normalized % activity relative to the signal of the positive control wells and negative control wells which were not treated with compound. The following formula was used to calculate normalized % activity from raw signals: % activity=(sample−negative)/(positive−negative)
(§7) The THP-1 STING Lucia ISG cell EC50 provides an assessment of activity at the human HAQ isoform of STING. For assessing compound activity against the WT human STING isoform, an equivalent method was conducted where the cells used were THP-1-Dual KI-hSTING-R232 (InvivoGen #thpd-r232).

[3] = biological target: T2, human STING (WT) (Homo sapiens (Human), UniProt Q86WV6, H232R); experiment: Surface Plasmon Resonance (SPR), STING (WT); settings: read-out: SPR (WT) KD; biotinylated STING on streptavidin chip, 8° C.
T2 sequence (Q86WV6 149-345 H232R): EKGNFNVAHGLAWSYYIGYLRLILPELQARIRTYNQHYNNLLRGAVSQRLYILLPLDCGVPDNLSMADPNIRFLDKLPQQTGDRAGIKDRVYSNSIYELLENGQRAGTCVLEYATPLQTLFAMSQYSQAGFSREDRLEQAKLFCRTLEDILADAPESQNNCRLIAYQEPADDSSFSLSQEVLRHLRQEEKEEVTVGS

[4] = biological target: T1, human STING (HAQ); experiment: Surface Plasmon Resonance (SPR), STING (HAQ); settings: read-out: SPR (HAQ) KD; biotinylated STING on streptavidin chip, 8° C.
[5] = biological target: T2, human STING (WT); experiment: Differential scanning fluorimetry (DSF), huSTING (WT); type: binding; settings: compound 100 μM, 2 μM protein, Tm with ligand minus Tm of protein alone (1% DMSO)
Experimental: as §1

[6] = biological target: human HAQ isoform of STING (Homo sapiens (Human), UniProt Q86WV6, G230A/H232R/R293Q/R71H); experiment: THP-1 STING Lucia ISG reporter cell line assay; type: cell-based; settings: 24 h incubation, luminescence, normalized to ML RR-S2 CDA 40 μM; read-out: EC50 THP-I STING Lucia ISG cells
Chain of human HAQ isoform of STING (Q86WV6 whole entry R71H/G230A/H232R/R293Q, canonical isoform): as the sequence (Q86WV6 whole entry H232R, canonical isoform) above, with R71H, G230A, R293Q counted along it
Experimental: as §2, §3, §4, §5, §6, §7

T1 sequence (Q86WV6 149-345 G230A/H232R/R293Q): as the sequence (Q86WV6 149-345 H232R) above, with G82A, R145Q counted along it

Structure (SMILES) | DSF huSTING (HAQ) ΔTm [1] [°C] | EC50 [2] [µM] | Kd [3] [µM] | Kd [4] [µM] | DSF huSTING (WT) ΔTm [5] [°C] | EC50 [6] [µM] | ΔTm at 100 µM [1] [°C] | ΔTm at 100 µM [5] [°C]
NC(=O)c1ccc2c(c1)nc(-c1c(C(=O)O)sc3cccc(Cl)c13)n2CCn1c(-c2c(C(=O)O)sc3cccc(Cl)c23)nc2cc(C(N)=O)ccc21 (single isomer, unassigned) [Example 1.1, 3,3′-(Ethane-1,2-diylbis(5-carbamoyl-1H-benzo[d]imidazole-1,2-diyl))bis(4-chlorobenzo[b]thiophene-2-carboxylic acid)] | 31.8 | 0.271 | 0.119 | 0.0017 | 19.9 | 0.681 |  | 
NC(=O)c1ccc2c(c1)nc(-c1c(C(=O)O)sc3c(F)ccc(Cl)c13)n2CCn1c(-c2c(C(=O)O)sc3c(F)ccc(Cl)c23)nc2cc(C(N)=O)ccc21 (single isomer, unassigned) [Example 2.1, 3,3′-(Ethane-1,2-diylbis(5-carbamoyl-1H-benzo[d]imidazole-1,2-diyl))bis(4-chloro-7-fluorobenzo[b]thiophene-2-carboxylic acid)] |  | 0.518 | 0.031 | 0.0074 | 21 | 1.83 | 32 | 
NC(=O)c1ccc2c(c1)nc(-c1c(C(=O)O)sc3c(F)ccc(Cl)c13)n2CCn1c(-c2c(C(=O)O)sc3c(F)ccc(Cl)c23)nc2cc(C(N)=O)ccc21 (single isomer, unassigned) [Example 2.2, 3,3′-(Ethane-1,2-diylbis(5-carbamoyl-1H-benzo[d]imidazole-1,2-diyl))bis(4-chloro-7-fluorobenzo[b]thiophene-2-carboxylic acid)] | 22.2 | 4.3 |  | 0.124 | 8.85 | 8.32 |  | 
NC(=O)c1ccc2c(c1)nc(-c1c(C(=O)O)sc3cccc(Cl)c13)n2CCCn1c(-c2c(C(=O)O)sc3cccc(Cl)c23)nc2cc(C(N)=O)ccc21 (single isomer, unassigned) [Example 4.1, 3,3′-(Propane-1,3-diylbis(5-carbamoyl-1H-benzo[d]imidazole-1,2-diyl))bis(4-chlorobenzo[b]thiophene-2-carboxylic acid)] | 2.85 | > 40 | 500 | 35.1 | −0.82 | > 40 |  | 
COc1cccc2sc(C(=O)O)c(-c3nc4cc(C(N)=O)ccc4n3CCn3c(-c4c(C(=O)O)sc5cccc(OC)c45)nc4cc(C(N)=O)ccc43)c12 (single isomer, unassigned) [Example 5.1, 3,3′-(Ethane-1,2-diylbis(5-carbamoyl-1H-benzo[d]imidazole-1,2-diyl))bis(4-methoxybenzo[b]thiophene-2-carboxylic acid)] | 23.59 | 13.6 | 0.692 | 0.0209 | 6.4 | > 40 |  | 
COc1cccc2sc(C(=O)O)c(-c3nc4cc(C(N)=O)ccc4n3CCn3c(-c4c(C(=O)O)sc5cccc(OC)c45)nc4cc(C(N)=O)ccc43)c12 (single isomer, unassigned) [Example 5.2, 3,3′-(Ethane-1,2-diylbis(5-carbamoyl-1H-benzo[d]imidazole-1,2-diyl))bis(4-methoxybenzo[b]thiophene-2-carboxylic acid)] |  | 0.489 | 0.122 | 0.0014 | 19.17 | 1.66 | 30.9 | 
NC(=O)c1ccc2c(c1)nc(-c1c(C(=O)O)sc3cccc(Br)c13)n2CCn1c(-c2c(C(=O)O)sc3cccc(Br)c23)nc2cc(C(N)=O)ccc21 (single isomer, unassigned) [Example 11.1, 3,3′-(Ethane-1,2-diylbis(5-carbamoyl-1H-benzo[d]imidazole-1,2-diyl))bis(4-bromobenzo[b]thiophene-2-carboxylic acid)] | 31.05 | 0.172 | 0.063 | 0.00164 | 17.83 | 0.182 |  | 
NC(=O)c1ccc2c(c1)nc(-c1c(C(=O)O)sc3cccc(Br)c13)n2CCn1c(-c2c(C(=O)O)sc3cccc(Br)c23)nc2cc(C(N)=O)ccc21 (single isomer, unassigned) [Example 11.2, 3,3′-(Ethane-1,2-diylbis(5-carbamoyl-1H-benzo[d]imidazole-1,2-diyl))bis(4-bromobenzo[b]thiophene-2-carboxylic acid)] | −1.75 | 2.83 | 1.43 |  | −5.12 | 5.48 |  | 
COc1ccc(F)c2sc(C(=O)O)c(-c3nc4cc(C(N)=O)ccc4n3CCn3c(-c4c(C(=O)O)sc5c(F)ccc(OC)c45)nc4cc(C(N)=O)ccc43)c12 (single isomer, unassigned) [Example 13.2, 3,3′-(Ethane-1,2-diylbis(5-carbamoyl-1H-benzo[d]imidazole-1,2-diyl))bis(7-fluoro-4-methoxybenzo[b]thiophene-2-carboxylic acid)] | 0.89 | > 40 | 2.37 |  | −1.43 | > 40 |  | 
Cc1cccc2sc(C(=O)O)c(-c3nc4cc(C(N)=O)ccc4n3CCn3c(-c4c(C(=O)O)sc5cccc(C)c45)nc4cc(C(N)=O)ccc43)c12 (single isomer, unassigned) [Example 15.1, 3,3′-(Ethane-1,2-diylbis(5-carbamoyl-1H-benzo[d]imidazole-1,2-diyl))bis(4-methylbenzo[b]thiophene-2-carboxylic acid)] |  | 1.01 | 0.43 |  |  | 1.54 | 24.6 | 10.5
NC(=O)c1ccc2c(c1)nc(-c1c(C(=O)O)sc3ccccc13)n2CCn1c(-c2c(C(=O)O)sc3ccccc23)nc2cc(C(N)=O)ccc21 [Example 9, 3,3′-(Ethane-1,2-diylbis(5-carbamoyl-1H-benzo[d]imidazole-1,2-diyl))bis(benzo[b]thiophene-2-carboxylic acid)] |  | 3.65 |  | 10.1 |  | > 40 | 6.7 | 2.36
N#Cc1cccc2sc(C(=O)O)c(-c3nc4cc(C(N)=O)ccc4n3CCn3c(-c4c(C(=O)O)sc5cccc(C#N)c45)nc4cc(C(N)=O)ccc43)c12 [Example 17, 3,3′-(Ethane-1,2-diylbis(5-carbamoyl-1H-benzo[d]imidazole-1,2-diyl))bis(4-cyanobenzo[b]thiophene-2-carboxylic acid)] |  | 9.4 |  | 38 |  | 14.9 | 3.27 | -2.58
CCOc1cccc2sc(C(=O)O)c(-c3nc4cc(C(N)=O)ccc4n3CCn3c(-c4c(C(=O)O)sc5cccc(OCC)c45)nc4cc(C(N)=O)ccc43)c12 [Example 24, 3,3′-(Ethane-1,2-diylbis(5-carbamoyl-1H-benzo[d]imidazole-1,2-diyl))bis(4-ethoxybenzo[b]thiophene-2-carboxylic acid)] |  | > 40 |  | 37 |  | > 40 | 3.15 | -0.39
